According to ChEMBL document CHEMBL4811299, “Discovery of a novel class of heteroaryl-pyrrolidinones as positive allosteric modulators of the muscarinic acetylcholine receptor M1” (Bioorg Med Chem Lett, 2021):
pEC50: −log10 of the molar value.

Assays:
[1] = biological target: T1, Muscarinic acetylcholine receptor M1 (Homo sapiens, UniProt P11229); assay: Positive allosteric modulation of human muscarinic acetylcholine M1 receptor expressed in CHO cells in presence of acetylcholine at EC20 concentration by calcium mobilization assay; format: functional, cell-based
T1 sequence (P11229 whole entry): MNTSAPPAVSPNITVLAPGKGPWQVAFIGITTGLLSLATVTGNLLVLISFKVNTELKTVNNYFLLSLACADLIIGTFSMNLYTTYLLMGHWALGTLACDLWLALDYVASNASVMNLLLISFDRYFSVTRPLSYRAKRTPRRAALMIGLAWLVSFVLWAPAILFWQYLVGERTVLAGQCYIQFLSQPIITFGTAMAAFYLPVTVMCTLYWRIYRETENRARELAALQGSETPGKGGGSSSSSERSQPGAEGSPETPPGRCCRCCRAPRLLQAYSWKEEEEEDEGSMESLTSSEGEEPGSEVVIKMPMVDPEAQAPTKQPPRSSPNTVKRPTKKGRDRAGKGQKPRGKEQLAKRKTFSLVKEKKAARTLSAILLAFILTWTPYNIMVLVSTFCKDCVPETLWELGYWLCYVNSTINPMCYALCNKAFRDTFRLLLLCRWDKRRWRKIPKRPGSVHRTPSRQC

[2] = biological target: T2, Muscarinic acetylcholine receptor M1 (Homo sapiens) (UniProt P11229); assay: Positive allosteric modulation of human muscarinic acetylcholine M1 receptor expressed in CHO cells in presence of acetylcholine at EC20 concentration by calcium mobilization assay relative to acetylcholine; format: functional, cell-based; conditions: time 3.5 min
T2 sequence (whole entry): T1 sequence (P11229 whole entry)

[3] = biological target: T3, Muscarinic acetylcholine receptor M2 (Homo sapiens, UniProt P08172); assay: Positive allosteric modulation of human muscarinic acetylcholine M2/Gqi5 receptor expressed in CHO cells in presence of acetylcholine at EC20 concentration by calcium mobilization assay; format: functional, cell-based
T3 sequence (P08172 whole entry): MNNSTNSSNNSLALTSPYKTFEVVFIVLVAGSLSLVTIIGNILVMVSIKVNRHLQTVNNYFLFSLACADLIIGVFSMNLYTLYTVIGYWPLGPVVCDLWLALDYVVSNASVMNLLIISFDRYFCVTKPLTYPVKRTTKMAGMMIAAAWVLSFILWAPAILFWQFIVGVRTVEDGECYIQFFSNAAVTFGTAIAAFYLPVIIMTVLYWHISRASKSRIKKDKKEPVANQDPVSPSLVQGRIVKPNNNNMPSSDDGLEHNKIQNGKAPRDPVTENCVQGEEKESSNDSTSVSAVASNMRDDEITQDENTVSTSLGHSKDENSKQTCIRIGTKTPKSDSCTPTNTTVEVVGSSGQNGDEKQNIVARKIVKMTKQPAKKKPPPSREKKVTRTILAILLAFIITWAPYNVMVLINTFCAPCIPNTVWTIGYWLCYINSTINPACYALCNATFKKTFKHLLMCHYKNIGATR

[4] = biological target: Muscarinic acetylcholine receptor M3 (Homo sapiens, UniProt P20309); assay: Positive allosteric modulation of human muscarinic acetylcholine M3 receptor expressed in CHO cells in presence of acetylcholine at EC20 concentration by calcium mobilization assay; format: functional, cell-based
[5] = biological target: T4, Muscarinic acetylcholine receptor M5 (Homo sapiens, UniProt P08912); assay: Positive allosteric modulation of human muscarinic acetylcholine M5 receptor expressed in CHO cells in presence of acetylcholine at EC20 concentration by calcium mobilization assay; format: functional, cell-based
T4 sequence (P08912 whole entry): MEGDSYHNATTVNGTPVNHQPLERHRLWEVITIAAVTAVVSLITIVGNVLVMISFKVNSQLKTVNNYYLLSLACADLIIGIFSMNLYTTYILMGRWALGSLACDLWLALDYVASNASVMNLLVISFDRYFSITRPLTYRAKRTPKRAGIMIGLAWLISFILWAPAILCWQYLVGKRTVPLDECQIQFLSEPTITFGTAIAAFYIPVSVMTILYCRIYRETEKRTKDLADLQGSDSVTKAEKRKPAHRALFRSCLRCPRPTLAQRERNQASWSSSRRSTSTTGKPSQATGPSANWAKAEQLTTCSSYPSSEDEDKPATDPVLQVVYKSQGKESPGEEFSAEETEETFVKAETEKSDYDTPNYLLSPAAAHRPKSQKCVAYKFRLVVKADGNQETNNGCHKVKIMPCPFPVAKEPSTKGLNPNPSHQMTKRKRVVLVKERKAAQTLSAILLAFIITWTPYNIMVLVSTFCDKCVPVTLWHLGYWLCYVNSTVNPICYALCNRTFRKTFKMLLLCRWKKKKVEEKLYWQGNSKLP

[6] = Protein binding in rat plasma assessed as unbound fraction measured after 4 hrs by equilibrium dialysis assay; format: ADME, cell-free
[7] = Protein binding in rat brain assessed as unbound fraction measured after 4 hrs by equilibrium dialysis assay; format: ADME, tissue-based
[8] = Protein binding in human plasma assessed as unbound fraction measured after 4 hrs by equilibrium dialysis assay; format: ADME, cell-free
[9] = Brain to plasma partition coefficient, Kp of the compound in rat at 0.20 mg/kg, iv administered as cassette dose measured at 0.25 hrs; format: ADME, organism-based; conditions: 0.2 mg/kg
[10] = Unbound brain-to-plasma concentration ratio of the compound in rat at 0.20 mg/kg, iv administered as cassette dose measured at 0.25 hrs; format: ADME, organism-based; conditions: 0.2 mg/kg
[11] = filed as positive allosteric modulator

Chain of Muscarinic acetylcholine receptor M3 (P20309 whole entry): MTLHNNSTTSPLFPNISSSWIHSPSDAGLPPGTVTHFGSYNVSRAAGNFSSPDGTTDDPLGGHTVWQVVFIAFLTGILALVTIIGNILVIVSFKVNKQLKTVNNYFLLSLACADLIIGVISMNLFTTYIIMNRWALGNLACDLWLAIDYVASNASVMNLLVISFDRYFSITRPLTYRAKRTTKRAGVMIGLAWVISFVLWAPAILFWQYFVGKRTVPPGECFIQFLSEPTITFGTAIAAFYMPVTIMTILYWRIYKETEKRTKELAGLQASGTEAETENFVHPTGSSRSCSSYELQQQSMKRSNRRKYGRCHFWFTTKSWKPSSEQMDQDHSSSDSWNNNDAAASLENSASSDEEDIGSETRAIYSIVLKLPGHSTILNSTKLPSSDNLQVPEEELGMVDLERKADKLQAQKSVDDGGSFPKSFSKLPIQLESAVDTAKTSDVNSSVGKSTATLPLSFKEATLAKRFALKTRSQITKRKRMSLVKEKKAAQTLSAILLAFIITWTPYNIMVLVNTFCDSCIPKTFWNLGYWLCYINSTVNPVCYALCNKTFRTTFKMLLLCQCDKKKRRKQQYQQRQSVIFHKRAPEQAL

| Structure (SMILES) | pEC50 [1] | Emax [2, 11] [%] | other results |
| --- | --- | --- | --- |
| Cn1cc2cc(-c3cc(F)c(CN4Cc5cnn(CC6CCCO6)c5C4=O)c(F)c3)ccc2n1 (configuration not stated) | 5.78 | 79 |  |
| Cn1cnc2ccc(-c3cc(F)c(CN4Cc5sccc5C4=O)c(F)c3)cc21 |  | 60 |  |
| COCCn1ncc2c1C(=O)N(Cc1c(F)cc(-c3cccc4nn(C)cc34)cc1F)C2 | 5.41 | 84 |  |
| Cn1cc2c(-c3cc(F)c(CN4Cc5nc[nH]c5C4=O)c(F)c3)cccc2n1 | < 5.00 |  |  |
| Cn1cc2c(-c3cc(F)c(CN4Cc5sccc5C4=O)c(F)c3)cccc2n1 | 5.72 | 75 |  |
| Cn1cc2cccc(-c3cc(F)c(CN4Cc5cnn(CC6CCCO6)c5C4=O)c(F)c3)c2n1 (configuration not stated) |  | 66 |  |
| Cn1cc2cc(-c3ccc(CN4Cc5sccc5C4=O)c(F)c3)ccc2n1 |  | 51 |  |
| Cn1cc2c(-c3cc(F)c(CN4Cc5cnn(CCN6CCCC6)c5C4=O)c(F)c3)cccc2n1 | 6.13 | 87 |  |
| Cn1cc2c(-c3cc(F)c(CN4Cc5ccsc5C4=O)c(F)c3)cccc2n1 | 5.66 | 66 |  |
| Cc1cc(-c2cc(F)c(CN3Cc4cnn(CC5CCCO5)c4C3=O)c(F)c2)ccn1 (configuration not stated) |  | 65 |  |
| Cn1cc2c(-c3ccc(CN4Cc5sccc5C4=O)c(F)c3)cccc2n1 |  | 67 |  |
| Cn1cc2c(-c3cc(F)c(CN4Cc5ocnc5C4=O)c(F)c3)cccc2n1 | < 5.00 |  |  |
| Cc1[nH]cc2c1C(=O)N(Cc1c(F)cc(-c3cccc4nn(C)cc34)cc1F)C2 | < 5.00 |  |  |
| Cc1nn(C)cc1-c1cc(F)c(CN2Cc3cnn(CC4CCCO4)c3C2=O)c(F)c1 (configuration not stated) |  | 77 |  |
| O=C1c2scnc2CN1Cc1c(F)cc(-c2ccc3ncccc3c2)cc1F | 5.10 |  | Emax [2]: 30% |
| Cn1cc2c(-c3cc(F)c(CN4Cc5ccn(CCCO)c5C4=O)c(F)c3)cccc2n1 |  | 67 |  |
| Cn1cc2c(-c3cc(F)c(CN4Cc5cnn(CCO)c5C4=O)c(F)c3)cccc2n1 | 5.82 | 84 |  |
| Cn1cc2cc(-c3cc(F)c(CN4Cc5occc5C4=O)c(F)c3)ccc2n1 |  | 45 |  |
| Cn1cc2c(-c3cc(F)c(CN4Cc5cnn(CC6CCCO6)c5C4=O)c(F)c3)cccc2n1 (configuration not stated) | 5.95 | 85 | pEC50 [3]: < 5.00; pEC50 [4]: < 5.00; pEC50 [5]: < 5.00; Fu [6]: 0.027; Fu [7]: 0.019; Fu [8]: 0.025 |
| Cn1cc2c(-c3cc(F)c(CN4Cc5cn(CC6CCCO6)nc5C4=O)c(F)c3)cccc2n1 (configuration not stated) | 5.45 | 61 |  |
| Cn1cc(-c2ccc(CN3Cc4ccsc4C3=O)c(F)c2)cn1 |  | 67 |  |
| Cn1cc2c(-c3cc(F)c(CN4Cc5ccn(CC6CCCO6)c5C4=O)c(F)c3)cccc2n1 (configuration not stated) |  | 58 |  |
| Cn1cc2c(-c3cc(F)c(CN4Cc5cn(CCN6CCCC6)nc5C4=O)c(F)c3)cccc2n1 |  | 57 |  |
| Cn1cc2cc(-c3cc(F)c(CN4Cc5sccc5C4=O)c(F)c3)ccc2n1 |  | 59 |  |
| Cn1cc2cc(-c3ccc(CN4Cc5ncsc5C4=O)c(F)c3)ccc2n1 | 5.70 | 60 | pEC50 [3]: < 5.00; pEC50 [4]: < 5.00; pEC50 [5]: < 5.00; Kp [9]: 2.1; K(p,uu,brain) [10]: 2.2; Fu [6]: 0.04; Fu [7]: 0.042; Fu [8]: 0.05 |
| Cn1cc2c(-c3cc(F)c(CN4Cc5ncoc5C4=O)c(F)c3)cccc2n1 | < 5.00 |  |  |
| Cn1cc2c(-c3cc(F)c(CN4Cc5ccn(CCN6CCCC6)c5C4=O)c(F)c3)cccc2n1 |  | 56 |  |
| Cn1cc2cc(-c3cc(F)c(CN4Cc5ccsc5C4=O)c(F)c3)ccc2n1 |  | 40 |  |
